Active and inactive are the calls of the source.
Legend:
Steroidogenic factor 1 = Steroidogenic factor 1 (Homo sapiens, UniProt Q13285); assay: Counterscreen for inverse agonists of the liver receptor homolog-1 (LRH-1; NR5A2): Luminescence-based cell-based high throughput dose response assay to identify inverse agonists of the Steroidogenic Factor 1 Nuclear Receptor (SF1; NR5A1).; type: functional
[1] = StAR promoter reporter inhibition counter-screen, dose response, counter-screen for LRH-1 inverse agonist project, cell-based, luminescence, luciferase reporter (AID 651969); type: functional
[2] = target: Nuclear receptor subfamily 5 group A member 2 (Homo sapiens, UniProt O00482); type: functional, cell-based;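 also: HEK293T cells transfected with LRH-1 and a StAR promoter luciferase reporter; potency for inhibitors that lower LRH-1 driven reporter light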
Sequence of Nuclear receptor subfamily 5 group A member 2 (O00482 whole entry): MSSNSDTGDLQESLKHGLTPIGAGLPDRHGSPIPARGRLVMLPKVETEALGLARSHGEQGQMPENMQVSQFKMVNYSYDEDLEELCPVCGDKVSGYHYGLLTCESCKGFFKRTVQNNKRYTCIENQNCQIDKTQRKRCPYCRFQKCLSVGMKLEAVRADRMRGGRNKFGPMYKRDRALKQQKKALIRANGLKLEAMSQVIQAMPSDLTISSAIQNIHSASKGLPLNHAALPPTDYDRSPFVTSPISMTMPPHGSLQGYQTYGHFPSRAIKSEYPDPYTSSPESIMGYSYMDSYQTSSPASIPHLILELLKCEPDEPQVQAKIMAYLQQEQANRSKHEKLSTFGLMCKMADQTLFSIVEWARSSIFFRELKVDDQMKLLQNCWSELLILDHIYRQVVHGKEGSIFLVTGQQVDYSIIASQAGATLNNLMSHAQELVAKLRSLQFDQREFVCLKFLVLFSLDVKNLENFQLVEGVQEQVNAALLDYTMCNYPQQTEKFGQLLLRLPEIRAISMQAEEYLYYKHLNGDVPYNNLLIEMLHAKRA

Beta-lactamase [3] = target: T1, Beta-lactamase (Pseudomonas aeruginosa, UniProt Q79MP6); assay: IMP-1 metallo-beta-lactamase inhibitors, dose response, selectivity assay for VIM-2 inhibitor project, biochemical, epi-absorbance (AID 1920)
T1 sequence (Q79MP6 whole entry): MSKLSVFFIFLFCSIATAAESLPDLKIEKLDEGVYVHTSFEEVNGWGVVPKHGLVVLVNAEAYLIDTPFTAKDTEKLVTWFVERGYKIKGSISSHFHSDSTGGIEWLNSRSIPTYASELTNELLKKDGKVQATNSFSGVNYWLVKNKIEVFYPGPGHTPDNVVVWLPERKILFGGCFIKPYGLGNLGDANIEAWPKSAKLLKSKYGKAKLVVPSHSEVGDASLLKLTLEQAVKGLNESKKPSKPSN

Beta-lactamase [4] = target: T1, Beta-lactamase; assay: […] counterscreen for selective VIM-2 inhibitors: dose response biochemical high throughput screening assay to identify inhibitors of IMP-1 metallo-beta-lactamase.
Beta-lactamase [5] = target: Beta-lactamase (Salmonella choleraesuis (strain SC-B67), UniProt Q5J463); assay: Epi-absorbance-based counterscreen for selective VIM-2 inhibitors: dose response biochemical high throughput screening assay to identify inhibitors of TEM-1 serine-beta-lactamase.
Sequence of Beta-lactamase (Salmonella choleraesuis (strain SC-B67), UniProt Q5J463) (Q5J463 whole entry): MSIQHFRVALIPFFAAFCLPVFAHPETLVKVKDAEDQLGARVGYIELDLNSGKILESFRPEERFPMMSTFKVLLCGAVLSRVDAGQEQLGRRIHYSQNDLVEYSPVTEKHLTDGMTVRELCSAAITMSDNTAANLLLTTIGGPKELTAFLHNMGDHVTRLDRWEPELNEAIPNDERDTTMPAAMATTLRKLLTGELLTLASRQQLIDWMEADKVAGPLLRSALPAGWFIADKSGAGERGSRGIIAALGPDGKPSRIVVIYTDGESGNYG

[6] = target: T2, Endoribonuclease toxin MazF (Escherichia coli K-12, UniProt P0AE70); assay: fluorescent RNA oligo signal without MazF, dose response, counter-screen for MazEF activator project, biochemical, fluorescence, single-stranded RNase substrate (AID 588502); type: functional
T2 sequence (P0AE70 whole entry): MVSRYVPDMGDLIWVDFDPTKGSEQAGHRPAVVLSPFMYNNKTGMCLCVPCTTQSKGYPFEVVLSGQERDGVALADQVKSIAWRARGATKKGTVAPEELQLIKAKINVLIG

[7] = target: T2, Endoribonuclease toxin MazF; assay: MazF toxin RNase activators, dose response, biochemical, fluorescence, single-stranded RNA substrate, uHTS hits (AID 588481); type: functional
[8] = LGR2 antagonists, dose response, cell-based, HEK293, CRE-luciferase reporter, cherry pick, set 2 (AID 743343); type: functional;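 also: transfected cells were stimulated with diluted bursicon conditioned medium after compound addition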
[9] = HEp-2 cell cytotoxicity, dose response, cytotoxicity control for RSV inhibitor project, HTS (AID 2410); type: functional; conditions: human respiratory syncytial virus
[10] = A549 cell cytotoxicity, dose response, cytotoxicity control, plate reader, cherry-pick, antagonist series (AID 743412); type: functional, cell-based
[11] = HepG2 cell cytotoxicity, dose response, cytotoxicity control, plate reader, cherry-pick, antagonist series (AID 743416); type: functional, cell-based
[12] = MC4R antagonists, dose response, counter-screen for LGR2 antagonist project, cell-based, plate reader, cherry pick (AID 743444); type: functional;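 also: transfected HEK 293 cells stimulated with alpha-MSH peptide; potency of inhibitors of the alpha-MSH evoked signal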
HEK293 [13] = assay: inhibitors of LMP1-driven NF-kB reporter, dose response, cell-based, HEK293, luciferase, cherry-pick (AID 588343); type: functional; conditions: Homo sapiens
[14] = intracellular Trypanosoma cruzi inhibitors in host cells – cell-based, plate reader, cherry-pick samples, set 3, dose response (AID 651818); type: functional;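 also: compounds incubated with infected cells for about four days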
HEK293 [15] = assay: cells; type: functional, cell-based; conditions: Homo sapiens
HEK293 [16] = assay: NOD1 signaling inhibitors, primary screen, cell-based, luminescence, uHTS (AID 1578); type: functional; conditions: Homo sapiens
HEK293 [17] = assay: NOD2 signaling inhibitors in MDP-stimulated cells, cell-based, uHTS, luminescence (AID 2001); type: functional; conditions: Homo sapiens
HEK293 [18] = assay: cells; type: functional, cell-based; conditions: Homo sapiens; remark: listed apart in the source

Sequence of Steroidogenic factor 1 (Q13285 whole entry): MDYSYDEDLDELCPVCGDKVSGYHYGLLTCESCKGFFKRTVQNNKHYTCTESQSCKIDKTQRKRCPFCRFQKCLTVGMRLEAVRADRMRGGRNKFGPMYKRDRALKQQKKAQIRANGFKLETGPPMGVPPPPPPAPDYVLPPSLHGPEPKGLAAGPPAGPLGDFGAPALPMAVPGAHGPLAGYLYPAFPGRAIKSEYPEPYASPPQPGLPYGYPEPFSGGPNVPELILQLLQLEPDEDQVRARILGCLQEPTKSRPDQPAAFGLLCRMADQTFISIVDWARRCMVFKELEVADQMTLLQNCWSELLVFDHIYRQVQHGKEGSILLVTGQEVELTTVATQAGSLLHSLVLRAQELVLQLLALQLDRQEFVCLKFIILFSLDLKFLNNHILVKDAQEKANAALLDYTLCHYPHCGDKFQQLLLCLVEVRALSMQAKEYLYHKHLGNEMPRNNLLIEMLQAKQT

With `COc1ccc(NC(=O)CSc2nc(N)c(-c3ccccc3)c(O)n2)cc1` the IC50 (Steroidogenic factor 1) was 2.36 µM (active), the IC50 [1] was 35.9 µM (inactive) and the IC50 [2] was 9.88 µM (active).

For `O=C(CCN1C(=O)/C(=C/c2ccccc2F)SC1=S)NCCCn1ccnc1`, the IC50 (Beta-lactamase [3]) was > 59.6 µM (inactive), the IC50 (Beta-lactamase [4]) was > 19.9 µM (inactive) and the IC50 (Beta-lactamase [5]) was > 59.6 µM (inactive).

In the case of `Cc1cc(-c2ccccc2)c2c3c(c(-c4ccccc4)n2n1)c(=O)n(C)c(=O)n3C`, the EC50 [6] is reported as > 99 µM (inactive) and the EC50 [7] is reported as > 99 µM (inactive).

For `Cc1cccc(-n2ncc3c(N4CCOCC4)ncnc32)c1`, the AC50 [8] was 3.92 µM (active), the CC50 [9] was 19.1 µM (active) and the AC50 [10] was > 52 µM (inactive). For the same compound, the AC50 [11] was > 52 µM (inactive), the AC50 [12] was 3.94 µM (active) and the AC50 (HEK293 [13]) was 1.36 µM (active).

With `C[C@@H]1CCCCO[C@@H](CN(C)C(=O)Nc2ccc(C(F)(F)F)cc2)[C@@H](C)CN([C@H](C)CO)C(=O)c2cc(NS(=O)(=O)c3ccc(Cl)cc3)ccc2O1` the AC50 [14] was 3.05 µM (active).

In the case of `C[C@@H]1CN([C@H](C)CO)C(=O)c2cccc(NC(=O)CCCCCC(=O)Nc3ccccc3N)c2O[C@H]1CN(C)CC1CC1`, the AC50 [14] is reported as 3.12 µM (active).

With `C[C@@H]1CN([C@@H](C)CO)C(=O)Cc2cc(NC(=O)Nc3ccc(C(F)(F)F)cc3)ccc2O[C@@H]1CN(C)Cc1ccc2c(c1)OCO2` the AC50 [14] was 2.01 µM (active).

For `C[C@H](CO)N1C[C@H](C)[C@H](CN(C)Cc2ccc(C(F)(F)F)cc2)Oc2ccc(NC(=O)Nc3ccc(F)cc3)cc2CC1=O`, the AC50 [14] was 2.19 µM (active).

In the case of `COC(=O)c1c(/N=C/N(C)C)sc2c1CCN(c1ncc(C(F)(F)F)cc1Cl)C2`, the EC50 [6] is reported as > 99 µM (inactive) and the EC50 [7] is reported as > 99 µM (inactive).

For `CN1CCN(c2ncnc3ccc(Br)cc23)CC1`, the IC50 (HEK293 [15]) was > 20 µM (inactive), the EC50 (HEK293 [16]) was 17.8 µM (active) and the IC50 (HEK293 [17]) was 6.08 µM (active). The IC50 (HEK293 [18]) was 4.83 µM (active).

Source: ChEMBL document CHEMBL1201862, “PubChem BioAssay data set” (2004)
